In patent US20210100246A1, “PYRIDYL-FORMAMIDINES HAVING A FUNGICIDAL ACTIVITY, THEIR AGRONOMIC COMPOSITIONS AND USE THEREOF” (ISAGRO, S.p.A., priority 2017, published 2021):

Columns and labels:
Puccinia Recondita = test: Preventive fungicidal activity (5 days) against Puccinia Recondita on wheat; format: in vivo; conditions: for Activity P5 NT (reduction of leaf area affected, parts developed during the test) / Activity P5 T (reduction of leaf area affected, parts treated directly) / effectiveness in containing the disease (in words): wheat; for Activity P5 NT (reduction of leaf area affected, parts developed during the test): non-treated parts (NT); for effectiveness in containing the disease (in words): summary of Table 4
Description: Determination of the preventive fungicidal activity (5 days) against Puccinia Recondita on wheat.
(§1) Leaves of wheat plants of the Salgemma variety, grown in pots in a conditioned environment at 20° C. and 70% of Relative Humidity (RH) were treated by spraying both sides of the leaves with the compound under examination (see Table 4 hereunder) dispersed in a hydroacetonic solution at 20% by volume of acetone.
After remaining 5 days in a conditioned environment, the plants were sprayed on both sides of the leaves with an aqueous suspension of conidia of Puccinia Recondita (2 mg of inoculum per 1 ml of solution for infection).
After spraying, the plants were kept in a humidity-saturated environment at a temperature ranging from 18 to 24° C. for the incubation period of the fungus (1 day).
At the end of this period, the plants were put in a greenhouse with a relative humidity (RH) of 70% and at a temperature of 18-24° C. for 14 days.
At the end of this period, the external symptoms of the pathogen appeared and it was therefore possible to proceed with the visual evaluation of the intensity of the infection, both on the parts treated directly with the products (T) and on the parts developed during the implementation of the test (NT).
(§2) The fungicidal activity is expressed as a percentage of the reduction, with respect to non-treated seedlings (comparison), in the area of the leaf affected by the disease (100=full effectiveness; 0=zero effectiveness).

wheat seedlings = test: Phytotoxicity (percentage of leaf necrosis) on wheat seedlings; format: in vivo; conditions: for Phytotoxicity % N.F. (leaf necrosis): wheat seedlings, scale 0-100
Description: as §1
At the same time, an evaluation of the phytotoxicity was effected (percentage of leaf necrosis) induced on the wheat seedlings by the application of the products: in this case the evaluation scale ranges from 0 (completely healthy plant) to 100 (completely necrotic plant).

Uromyces Appendiculatus = test: Preventive fungicidal activity (5 days) against Uromyces Appendiculatus on beans; format: in vivo
Description: Determination of the preventive fungicidal activity (5 days) against Uromyces Appendiculatus on beans.
(§3) Bean plants cv. Borlotto of Vigevano, grown in pots in a conditioned environment, were treated by spraying both sides with the products under examination in a hydroacetonic solution with 20% by volume of acetone (vol./vol.).
After remaining 5 days in a conditioned environment at 23° C. and 70% of relative humidity, the plants were sprayed on the lower side with an aqueous suspension of spores of Uromyces Appendiculatus (200,000 spores/cc); after remaining 24 hours in a humidity-saturated environment, they were re-transferred to the conditioned environment.
After this period, the external symptoms of the pathogen appeared and it was therefore possible to proceed with the visual evaluation of the intensity of the infection.
as §2

bean seedlings = test: Phytotoxicity (percentage of leaf necrosis) on bean seedlings; format: in vivo; conditions: scale 0-100
Description: as §3
At the same time, an evaluation of the phytotoxicity was effected (percentage of leaf necrosis) induced on the bean seedlings by the application of the products: in this case the evaluation scale ranges from 0 (completely healthy plant) to 100 (completely necrotic plant).

[1] = Accelerated stability test of 5% solutions in commercial solvents (54° C., 2 weeks, HPLC); format: physicochemical
Description: Stability tests of the compositions containing compounds having formula (I) in a solvent
In order to evaluate the chemical stability of the compounds having Formula (I) in a solvent, 5% solutions were prepared, containing 250 mg of compounds Nr. 1, 17, 39 and 40, dissolved in 4.75 g of various commercial solvents used for the preparation of emulsifiable concentrates.
The resulting solutions were put in an oven at 54° C. for 2 weeks (according to Cipac MT 46.1 update 2012) and then analyzed by means of HPLC in order to verify the concentration of the active ingredient contained therein. The percentage of degradation of the compound having Formula (I) was therefore obtained, after the accelerated stability test.

Sphaerotheca Fuliginea = test: Preventive fungicidal activity (7 days) against Sphaerotheca Fuliginea on cucumbers; format: in vivo
Description: Determination of the preventive fungicidal activity (7 days) against Sphaerotheca Fuliginea on cucumbers.
(§4) Cucumber plants cv. Lungo of China, grown in pots in a conditioned environment were treated by spraying both sides with the products under examination in a hydroacetonic solution with 20% by volume of acetone (vol./vol.).
7 days after the treatment, the plants were sprayed on the upper side with an aqueous suspension of spores of Sphaerotheca Fuliginea (200,000 spores/cc); they were then re-transferred to the conditioned environment.
At the end of the period of incubation (8 days), the evaluation of the intensity of the infection was finally effected.
as §2

cucumber seedlings = test: Phytotoxicity (percentage of leaf necrosis) on cucumber seedlings; format: in vivo; conditions: scale 0-100
Description: as §4
At the same time, an evaluation of the phytotoxicity was effected (percentage of leaf necrosis) induced on the cucumber seedlings by the application of the products: in this case the evaluation scale ranges from 0 (completely healthy plant) to 100 (completely necrotic plant).

[2] = solvent ADMA 10 (N,N-dimethyldecanamide)
[3] = solvent Alkamuls T/20 (ethoxylated sorbitan monolaurate)
[4] = solvent CME (rapeseed methyl ester)
[5] = solvent FMPC (N-formylmorpholine and propylene carbonate)
[6] = solvent Green 25 (dimethylsulfoxide, acetophenone, 2-ethylhexyl acetate)
[7] = solvent Purasolv BL (butyl lactate)
[8] = solvent RPDE (dimethyl glutarate, dimethyl succinate, dimethyl adipate)

Compound | Activity P5 NT (reduction of leaf area affected, parts developed during the test) (Puccinia Recondita; 125 ppm) | Activity P5 T (reduction of leaf area affected, parts treated directly) (Puccinia Recondita; 125 ppm) | Activity P5 NT (reduction of leaf area affected, parts developed during the test) (Puccinia Recondita; 250 ppm) | Activity P5 T (reduction of leaf area affected, parts treated directly) (Puccinia Recondita; 250 ppm) | effectiveness in containing the disease (in words) (Puccinia Recondita) | Phytotoxicity % N.F. (leaf necrosis) (wheat seedlings; 125 ppm) | Phytotoxicity % N.F. (leaf necrosis) (wheat seedlings; 250 ppm) | symptoms of phytotoxicity on the plant (in words) (wheat seedlings; wheat, summary of Table 4) | Activity P5 (Uromyces Appendiculatus; 30 ppm) | Activity P5 (Uromyces Appendiculatus; 125 ppm) | Phytotoxicity % N.F. (leaf necrosis) (bean seedlings; 30 ppm) | Phytotoxicity % N.F. (leaf necrosis) (bean seedlings; 125 ppm) | percentage of degradation [1, 2] | percentage of degradation [1, 3] | percentage of degradation [1, 4] | percentage of degradation [1, 5] | percentage of degradation [1, 6] | percentage of degradation ([1]; solvent Propylene carbonate) | percentage of degradation [1, 7] | percentage of degradation [1, 8] | further results
CCN(C)C=Nc1cc(C)c(SCC2CCCCC2)nc1C [Compound 40] | 55% | 80% | 70% | 90% | effective in containing the disease | 0 % N.F. | 0 % N.F. | do not show any symptoms of phytotoxicity | 100% | 100% | 0 % N.F. | 0 % N.F. | 1.09% | 81.02% | 12.76% | 0% | 2.82% | 0% | 100% | 1.71% | 
N-ethyl-N-methyl-N′-[5-bromo-2-methyl-6-[(4-methylpentyloxy]pyridyl-3-formamidine [CR2, reference compound] |  |  |  |  |  |  |  |  | 80% | 90% |  |  |  |  |  |  |  |  |  |  | Activity P5 (Sphaerotheca Fuliginea; 30 ppm): 75%; Activity P5 (Sphaerotheca Fuliginea; 125 ppm): 85%
CCN(C)C=Nc1cc(Br)c(OCCC(C)C)nc1C [CR1, N-ethyl-N-methyl-N′-[5-bromo-2-methyl-6-(3-methyl-butyloxy)-3-pyridyl]-formamidine, reference compound] | 20% | 60% | 50% | 80% |  | 5 % N.F. | 10 % N.F. |  |  |  |  |  |  |  |  |  |  |  |  |  | 
CCN(C)C=Nc1cc(C)c(SCc2cccc(C(F)(F)F)c2)nc1C [Compound 3, N-ethyl-N-methyl-N′-2,5-dimethyl-6-{[3(trifluoromethyl)benzyl]thio}pyridyl-3-formamidine] | 93% | 100% | 98% | 100% | effective in containing the disease |  |  |  | 100% | 100% |  |  |  |  |  |  |  |  |  |  | symptoms of phytotoxicity on the plant (in words) (wheat seedlings; in vivo): do not show any symptoms of phytotoxicity; Activity P5 (Sphaerotheca Fuliginea; 30 ppm): 98%; Activity P5 (Sphaerotheca Fuliginea; 125 ppm): 100%; Phytotoxicity % N.F. (leaf necrosis) (cucumber seedlings; 30 ppm): 1 % N.F.; Phytotoxicity % N.F. (leaf necrosis) (cucumber seedlings; 125 ppm): 3 % N.F.
CCN(C)C=Nc1cc(C)c(SCc2c(F)cccc2F)nc1C [Compound 39] | 88% | 95% | 97% | 98% | effective in containing the disease | 0 % N.F. | 0 % N.F. | do not show any symptoms of phytotoxicity | 100% | 100% | 0 % N.F. | 0 % N.F. | 0% | 79.78% | 17.31% | 1.53% | 1.84% | 0.61% | 100% | 1.13% | 
CCN(C)C=Nc1cc(Br)c(SCCC(C)C)nc1C [Compound 5] | 45% | 85% | 65% | 100% | effective in containing the disease | 0 % N.F. | 0 % N.F. | do not show any symptoms of phytotoxicity |  |  |  |  |  |  |  |  |  |  |  |  | activity compared with CR1 (in words) (Puccinia Recondita; also at low dosages (125 ppm)): more active
CCCCCCSc1nc(C)c(N=CN(C)CC)cc1C [Compound 17] | 55% | 95% | 65% | 98% | effective in containing the disease | 0 % N.F. | 0 % N.F. | do not show any symptoms of phytotoxicity | 100% | 100% | 0 % N.F. | 0 % N.F. | 1.57% | 74.78% | 16% | 0.79% | 2.96% | 0% | 100% | 1.93% | 
